Patent publication US10201547B2, “Method of treatment of aggression” (Supernus Pharmaceuticals, Inc., priority 2008, dated 2019)

Columns and labels:
[1] = biological target: T1, D2S(h) (Homo sapiens, UniProt P14416); test: D2S(h) displacement (radioligand binding) assay, [3H]spiperone
[2] = biological target: T2, D4.4 (Homo sapiens, UniProt P21917); test: D4.4 displacement assay; format: binding; conditions: concentration 1.0E−05M
T2 sequence (P21917 1-419): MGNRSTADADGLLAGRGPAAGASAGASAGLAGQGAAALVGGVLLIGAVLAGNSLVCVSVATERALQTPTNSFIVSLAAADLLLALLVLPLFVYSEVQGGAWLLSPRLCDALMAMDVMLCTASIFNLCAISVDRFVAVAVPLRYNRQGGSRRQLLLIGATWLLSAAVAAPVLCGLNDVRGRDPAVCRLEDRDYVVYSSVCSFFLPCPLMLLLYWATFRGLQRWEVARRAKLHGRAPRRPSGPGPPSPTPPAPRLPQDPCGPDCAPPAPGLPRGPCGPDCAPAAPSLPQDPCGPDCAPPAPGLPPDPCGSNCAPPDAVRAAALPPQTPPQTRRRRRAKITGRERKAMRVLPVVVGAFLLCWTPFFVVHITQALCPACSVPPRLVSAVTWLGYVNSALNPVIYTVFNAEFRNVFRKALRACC

[3] = biological target: T3, human D5 receptor (Homo sapiens, UniProt P21918); test: D5(h) displacement (radioligand binding) assay, [3H]SCH 23390, recombinant D5 receptors in GH4 cell line
T3 construct: expressed in transfected cells; host or cells: GH4 cell line
T3 sequence (P21918 whole entry): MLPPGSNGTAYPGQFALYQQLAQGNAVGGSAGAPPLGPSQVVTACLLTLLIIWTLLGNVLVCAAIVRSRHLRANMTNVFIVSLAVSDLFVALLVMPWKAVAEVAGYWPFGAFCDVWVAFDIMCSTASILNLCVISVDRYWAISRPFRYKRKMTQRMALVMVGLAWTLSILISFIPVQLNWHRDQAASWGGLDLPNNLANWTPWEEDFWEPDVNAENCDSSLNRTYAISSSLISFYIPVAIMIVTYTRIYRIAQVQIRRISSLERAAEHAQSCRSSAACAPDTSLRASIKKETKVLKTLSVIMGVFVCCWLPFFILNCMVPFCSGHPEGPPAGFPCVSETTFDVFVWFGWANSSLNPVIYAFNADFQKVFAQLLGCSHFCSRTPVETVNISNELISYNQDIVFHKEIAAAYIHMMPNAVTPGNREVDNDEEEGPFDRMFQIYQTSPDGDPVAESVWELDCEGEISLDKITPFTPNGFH
Protocol: A heterologous competition assay was designed for a receptor affinity screening of molindone. Recombinant D5 receptors were expressed in a GH4 cell line and specific binding was characterized by displacement of another molecule with affinity for the D5 receptor (the “ligand”). “Specific binding” refers here to the difference in the binding of the ligand to the receptors in the presence and absence of an excess of the active agent. An initial screen was performed with […] molindone.
The affinity of molindone for the D5 receptor was further characterized by determining the IC50, or concentration that inhibits 50% of control specific binding. For this experiment, a range of molindone concentrations was selected for the ligand blocking assay. The IC50 was determined using non-linear regression analysis of the competition curves using Hill equation curve fitting. The inhibition constants Ki, wherein Ki is defined as the concentration of the competing ligand (molindone) that will bind to half the binding sites at equilibrium in the absence of radioligand or other competitors, were calculated using Cheng Prusoff equation.

[4] = biological target: T1, D2S(h); test: D2S(h) antagonist effect, cAMP HTRF; format: cell-based
[5] = biological target: T3, human D5 receptor; test: D5(h) antagonist effect, cAMP HTRF; format: cell-based; conditions: for Agonist Response % of Control, 1st / Agonist Response % of Control, 2nd / Agonist Response % of Control, Mean: antagonist effect
From the text: (§1) The final step of the assay was to characterize whether the binding is of an agonist or antagonist nature. For the D5 receptor, this was accomplished through an assay that examined the agonist effect on the D5 receptor, i.e., the generation of cAMP or the blockade of this effect when stimulated by a D5 agonist, dopamine. This was also done with a range of concentrations to determine the relative agonist vs antagonist binding Ki. The EC50 values (concentration producing a half-maximal specific response) and IC50 values (a concentration causing a half-maximal inhibition of the control-specific agonist response) were determined by non-linear regression analysis of the concentration-response curves generated with mean replicate values using Hill equation curve fitting. The apparent dissociation constants for antagonists Kb were calculated using the modified Cheng Prusoff equation.

[6] = biological target: T3, human D5 receptor; test: D5(h) agonist effect, cAMP HTRF; format: cell-based; conditions: control 10 μM dopamine
From the text: as §1

[7] = Randomized, multicenter, parallel group dose-ranging study in children with ADHD and persistent serious conduct problems; format: in vivo, human; design: NCBRF-TIQ Conduct Problem Subscale Score, Visit 12 Mean / Mean Reduction from Baseline in NCBRF-TIQ Conduct Problem Subscale Score: scale not given here; conditions: for NCBRF-TIQ Conduct Problem Subscale Score, Visit 12 Mean: 6 weeks at target dose
Protocol: Effectiveness, safety and tolerability of molindone was evaluated in a randomized, multicenter, parallel group dose-ranging study in children with ADHD and persistent serious conduct problems. Subjects were randomized based on weight at baseline to 1 of 4 treatment groups. The dosing for subjects with weight of less than 30 kg was initiated at 1.67 mg/day and 3.34 mg/day for subjects weighing 30 kg or more. A titration schedule was followed until the target dose (Treatment group 1, 2, 3 or 4) was reached. Subjects remained at target dose for 6 weeks (Table 9). [table]

[8] = D5(h), test concentration 1.0E−04 M, dopamine 100 nM
[9] = D5(h), test concentration 1.0E−05 M, dopamine 100 nM
[10] = D5(h), test concentration 1.0E−06 M, dopamine 100 nM
[11] = D5(h), test concentration 1.0E−07 M, dopamine 100 nM
[12] = D5(h), test concentration 2.0E−05 M, dopamine 100 nM
[13] = D5(h), test concentration 3.0E−06 M, dopamine 100 nM
[14] = D5(h), test concentration 3.0E−07 M, dopamine 100 nM
[15] = D5(h), test concentration 5.0E−05 M, dopamine 100 nM

T1 sequence (P14416 1-414 isoform P14416-2): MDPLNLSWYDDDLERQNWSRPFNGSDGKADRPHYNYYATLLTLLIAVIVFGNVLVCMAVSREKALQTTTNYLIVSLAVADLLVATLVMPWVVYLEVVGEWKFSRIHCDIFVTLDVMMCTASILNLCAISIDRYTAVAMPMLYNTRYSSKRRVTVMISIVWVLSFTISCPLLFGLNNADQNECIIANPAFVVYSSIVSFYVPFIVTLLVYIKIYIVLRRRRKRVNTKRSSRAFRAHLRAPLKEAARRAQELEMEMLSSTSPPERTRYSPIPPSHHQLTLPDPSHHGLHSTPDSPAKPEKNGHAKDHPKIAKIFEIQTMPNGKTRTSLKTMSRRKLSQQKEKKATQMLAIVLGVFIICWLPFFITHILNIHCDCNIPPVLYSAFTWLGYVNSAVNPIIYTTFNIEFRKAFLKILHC

## CCc1c(C)[nH]c2c1C(=O)C(CN1CCOCC1)CC2 (stereo not drawn) [molindone]
[1]; D2s binding, Cheng Prusoff, read-out: K1
  Ki: 17 nM
[1]; D2s binding, Hill equation curve fitting
  n(H): 1.7
[1]; D2s, concentration 1.0E−05M
  % Inhibition of control specific binding: 98%
[2]
  % Inhibition of control specific binding: 38%
[3]; D5 binding
  IC50: 5200 nM
[3]; D5 binding, Hill equation curve fitting
  n(H): 1.2
[3]; D5 receptor
  Ki: 2400 nM
[3]; molindone 10^−5 μM, read-out: inhibition of the SCH23390 binding at the D5 receptor
  inhibition at 10 pM: 59%
[4]; dopamine 30 nM
  IC50: 68 nM
[4]; modified Cheng Prusoff
  Kb: 4.7 nM
[5]; D5(h), dopamine 100 nM
  IC50: 5300 nM
[5]; D5(h), modified Cheng Prusoff
  Kb: 920 nM
[5]; D5 receptor, cAMP
  nature of the binding/activity at the D5 receptor (agonist or antagonist): specific antagonist activity
[5]; [8]
  Agonist Response % of Control, 1st: 7%
  Agonist Response % of Control, 2nd: 4%
  Agonist Response % of Control, Mean: 5.6%
[5]; [9]
  Agonist Response % of Control, 1st: 40%
  Agonist Response % of Control, 2nd: 36%
  Agonist Response % of Control, Mean: 38.4%
[5]; [10]
  Agonist Response % of Control, 1st: 98%
  Agonist Response % of Control, 2nd: 95%
  Agonist Response % of Control, Mean: 96.4%
[5]; [11]
  Agonist Response % of Control, 1st: 107%
  Agonist Response % of Control, 2nd: 115%
  Agonist Response % of Control, Mean: 111.0%
[5]; [12]
  Agonist Response % of Control, 1st: 19%
  Agonist Response % of Control, 2nd: 20%
  Agonist Response % of Control, Mean: 19.6%
[5]; [13]
  Agonist Response % of Control, 1st: 67%
  Agonist Response % of Control, 2nd: 66%
  Agonist Response % of Control, Mean: 66.7%
[5]; [14]
  Agonist Response % of Control, 1st: 90%
  Agonist Response % of Control, 2nd: 95%
  Agonist Response % of Control, Mean: 92.9%
[5]; [15]
  Agonist Response % of Control, 1st: 4%
  Agonist Response % of Control, 2nd: 11%
  Agonist Response % of Control, Mean: 7.3%
[6]; test concentration 1.0E−04 M
  Agonist Response % of Control, 1st: 1%
  Agonist Response % of Control, 2nd: 4%
  Agonist Response % of Control, Mean: 2.1%
[6]; test concentration 1.0E−05 M
  Agonist Response % of Control, 1st: −1%
  Agonist Response % of Control, 2nd: 2%
  Agonist Response % of Control, Mean: 0.6%
[6]; test concentration 1.0E−06 M
  Agonist Response % of Control, 1st: 0%
  Agonist Response % of Control, 2nd: 0%
  Agonist Response % of Control, Mean: 0.1%
[6]; test concentration 1.0E−07 M
  Agonist Response % of Control, 1st: 2%
  Agonist Response % of Control, 2nd: 2%
  Agonist Response % of Control, Mean: 2.1%
[6]; test concentration 2.0E−05 M
  Agonist Response % of Control, 1st: −2%
  Agonist Response % of Control, 2nd: 2%
  Agonist Response % of Control, Mean: 0.2%
[6]; test concentration 3.0E−06 M
  Agonist Response % of Control, 1st: 3%
  Agonist Response % of Control, 2nd: 4%
  Agonist Response % of Control, Mean: 3.3%
[6]; test concentration 3.0E−07 M
  Agonist Response % of Control, 1st: 4%
  Agonist Response % of Control, 2nd: −1%
  Agonist Response % of Control, Mean: 1.8%
[6]; test concentration 5.0E−05 M
  Agonist Response % of Control, 1st: 1%
  Agonist Response % of Control, 2nd: −2%
  Agonist Response % of Control, Mean: −0.7%
[7]; Treatment 1: 5 mg/day (<30 kg), 10 mg/day (≥30 kg)
  NCBRF-TIQ Conduct Problem Subscale Score, Visit 12 Mean: 13.40
[7]; Treatment 1: 5 mg/day (<30 kg), 10 mg/day (≥30 kg), baseline mean 20.35
  Mean Reduction from Baseline in NCBRF-TIQ Conduct Problem Subscale Score: 6.95
[7]; Treatment 2: 10 mg/day (<30 kg), 20 mg/day (≥30 kg)
  NCBRF-TIQ Conduct Problem Subscale Score, Visit 12 Mean: 17.00
[7]; Treatment 2: 10 mg/day (<30 kg), 20 mg/day (≥30 kg), baseline mean 25.74
  Mean Reduction from Baseline in NCBRF-TIQ Conduct Problem Subscale Score: 8.74
[7]; Treatment 3: 15 mg/day (<30 kg), 30 mg/day (≥30 kg)
  NCBRF-TIQ Conduct Problem Subscale Score, Visit 12 Mean: 17.79
[7]; Treatment 3: 15 mg/day (<30 kg), 30 mg/day (≥30 kg), baseline mean 26.00
  Mean Reduction from Baseline in NCBRF-TIQ Conduct Problem Subscale Score: 8.21
[7]; Treatment 4: 20 mg/day (<30 kg), 40 mg/day (≥30 kg)
  NCBRF-TIQ Conduct Problem Subscale Score, Visit 12 Mean: 11.65
[7]; Treatment 4: 20 mg/day (<30 kg), 40 mg/day (≥30 kg), baseline mean 25.95
  Mean Reduction from Baseline in NCBRF-TIQ Conduct Problem Subscale Score: 14.30
[7]; all four treatment groups
  Side effects: mild, self-limiting and within the limits of tolerability
  discontinuation because of side effects: no subjects discontinued the study because of the side effects
[7]; children with ADHD and persistent serious conduct problems
  efficacy signal towards reducing Conduct Problem Subscale scores: statistically significant efficacy signal
